From article PMC9841576, “Characterisation of C101248: A novel selective THIK-1 channel inhibitor for the modulation of microglial NLRP3-inflammasome” (Neuropharmacology, 2023)
Read-outs that look alike come from different tables or passages of the source.

Legend:
THIK-1 = molecular target: T1, THIK-1 (Homo sapiens, UniProt Q9HB14); assay: Competition radioligand binding with 3H-C101505, membranes from HEK-hKCNK13 cells
T1 construct: expressed in transfected cells
T1 sequence (Q9HB14 1-408): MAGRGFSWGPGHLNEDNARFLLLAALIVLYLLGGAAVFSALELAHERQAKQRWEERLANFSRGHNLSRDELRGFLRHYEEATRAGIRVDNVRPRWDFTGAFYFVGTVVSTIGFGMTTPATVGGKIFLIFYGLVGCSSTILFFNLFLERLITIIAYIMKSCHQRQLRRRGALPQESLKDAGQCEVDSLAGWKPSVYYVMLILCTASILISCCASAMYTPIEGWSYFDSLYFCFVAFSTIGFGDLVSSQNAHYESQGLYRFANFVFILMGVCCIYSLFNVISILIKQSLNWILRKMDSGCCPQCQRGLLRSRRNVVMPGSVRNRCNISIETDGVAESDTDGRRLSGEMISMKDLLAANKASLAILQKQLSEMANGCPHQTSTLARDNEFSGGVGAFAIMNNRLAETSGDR
Protocol: From within the same chemotype as C101248, a structurally related compound (C101505) was tritiated for use in radioligand binding studies (specific activity 14 Ci/mmol). All radioligand binding assays were performed by Gifford Bioscience (Birmingham, UK). Cells were grown to approximately 90% confluence, washed twice with PBS and once with PBS with sucrose (10%) solution that was removed before the flasks were stored at −80 °C. Upon thawing, ice-cold lysis buffer (50 mM Tris-HCl; 5 mM MgCl2; 5 mM EDTA; protease inhibitor cocktail) was added to the flasks for 5 min (4 °C) and the cell layer scraped into collection tubes. The lysate was centrifuged at 13,000 g for 10 min (4 °C) to pellet the membranes. […] A sample of the homogenate was analysed for protein content using a BCA protein assay kit. […] Filters were then dried under a warm air stream, sealed in polyethylene, scintillation cocktail added, and the radioactivity counted in a MicroBeta TriLux counter (Wallac). […] The in vitro binding affinity (Ki) of C101248 was calculated from the experimental IC50 value using the Cheng-Prusoff equation (([Cheng and Prusoff, 1973]) Ki = IC50/(1 + ([L]/KD)), where [L] was the radioligand concentration in the displacement assay and KD was the radioligand dissociation constant determined from previous saturation binding studies.

[1] = test system: NLRP3-dependent release of IL-1β; assay: LPS/ATP-induced IL-1β release from adult microglia; assay type: cell-based, mouse; details: 0.1 and 1 μM
Protocol: Microglia were isolated from C57BL/6 male and female mice aged 6–10 weeks (Charles River, UK) as previously described ([Drinkall et al., 2022]). In brief, brains were isolated, minced, and digested using a Neural Tissue Dissociation Kit (Miltenyi Biotec Ltd., UK) according to manufacturer's instructions. The resulting suspension was dissociated using a Dounce tissue grinder (Sigma). Myelin was removed by centrifuging cell suspension in 33% Percoll (GE Healthcare) for 10 min at 1000 g with low break and aspiration of myelin layer. Cells were pelleted by diluting 1:4 in Ca^2+/Mg^2+ free Hank's balanced salt solution (CMF-HBSS, Gibco) and centrifuged for 10 min at 500 g. […] The eluted microglia were counted and plated onto 96-well Cell + plates (Sarstedt) at a density of 30,000 cells per well in culture medium (DMEM/F12, 10% FBS, 1% PenStrep, 2 mM glutamine, 20 ng/ml IL-34 (R&D Systems), and 50 ng/ml transforming growth factors-β1 (Miltenyi Biotec Ltd., UK)). […]
IL-1β from culture supernatants was measured with DuoSet ELISA kit (R&D Systems) following the manufacturer instructions.

CNS PK study in mice = assay type: in vivo; details: 30 mg/kg single oral, male mice; for Kp: C57BL/6, mouse, 0.25-2 h post dose
Protocol: In CNS PK studies, rodents (C57BL/6 mice or Sprague Dawley rats) were administered C101248 by oral gavage at 10 or 30 mg/kg. At specified timepoints post dose (0.5, 1, 2 or 4 h), blood samples were collected and processed to plasma (centrifugation at 5000 rpm, 4 °C for 10 min). Immediately following blood withdrawal, cerebrospinal fluid (CSF) samples were collected from the cisterna magna, whole body perfusion was conducted, and brain samples were collected and weighed. Samples were stored frozen at −80 ± 10 °C until analysis. Plasma, CSF, and brain samples were analysed using a fit for purpose bioanalytical method (LC-MS/MS) against a calibration curve containing QC samples. Brain:plasma and CSF:plasma were calculated based on brain concentration/plasma concentration at the same timepoint. Unbound partition coefficient (Kpu,u) values were calculated based on unbound brain concentration/unbound plasma concentration at the same timepoint. Unbound concentrations were derived by adjusting plasma concentrations for the fraction unbound in plasma based on in vitro plasma protein binging (PPB) values and brain concentrations for the unbound fraction in brain tissue based on in vitro brain tissue binding (BTB) values.

Nc1nonc1-c1nc2ccccc2n1Cc1ccncc1 [C101248]
Ki (THIK-1; Cheng-Prusoff from IC50, radioligand 3H-C101505): 57 nM
IC50 (THIK-1; radioligand 3H-C101505, HEK-hKCNK13 membranes, read-out: IC50, displacement of radioligand): 77 nM
effect on LPS/ATP-induced IL-1β release [1]: significantly attenuated
time of maximal concentration (Cmax) (CNS PK study in mice; brain, CSF and plasma (all matrices)): 1 h
Kp (CNS PK study in mice; CSF / unbound plasma, read-out: CSF:unbound plasma): 0.8 to 1.2
Kp (CNS PK study in mice; brain (unbound) / plasma (unbound), read-out: unbound partition coefficient (Kpu,u)): 0.7 to 1.5
